The values below come from US9708312B2, “Dihydropyrimidinoisoquinolinones and pharmaceutical compositions thereof for the treatment of inflammatory disorders (GPR84 antagonists)” (GALAPAGOS NV, priority 2012, dated 2017).

The target in this assay is T1, GPR84 (Homo sapiens, UniProt Q9NQS5).
T1 construct: expressed in transfected cells
Kind of assay: GPR84 [35S]GTPγS binding assay, HEPES buffer. It is filed as biochemical. To be noted: 3,3′ di indolylmethane at EC80, membranes from stable cell line over expressing GPR84. The method, then: 1.1. Cell Based Assay: GTp-γ S Binding Assay.
The following assay can be used for determination of GPR84 activation.
The assay is performed in a 96 well plate where the following reagents are added. […] In a last step, 30 μL of a mixture consisting of membranes-GTPγS-SpA beads is added [mixture consists of 20 μg/well membranes derived from stable cell line over expressing GPR84 (membranes are pre-incubated with 0.1 μM GDP for 15 min at 4° C.), 0.1 nM [^35S]GTPγS (Perkin Elmer, NEG030) and 0.5 mg/well PVT-WGA SpA beads (Perkin Elmer, RPNQ0001)]. All components are diluted in assay buffer containing 20 mM HEPES pH 7.4; 5 mM MgCl2; 250 mM NaCl; 0.05% BSA; 75 ug/mL saponin Reactions are incubated for 90 min at room temperature followed by centrifugation at 2000 rpm during 15 min. Plates are read on a Topcount reader (Perkin Elmer) immediately after centrifugation (readout time, 1 min/well).
(In general: GTPγS resists hydrolysis and so accumulates on activated G proteins.)

T1 sequence (Q9NQS5 whole entry): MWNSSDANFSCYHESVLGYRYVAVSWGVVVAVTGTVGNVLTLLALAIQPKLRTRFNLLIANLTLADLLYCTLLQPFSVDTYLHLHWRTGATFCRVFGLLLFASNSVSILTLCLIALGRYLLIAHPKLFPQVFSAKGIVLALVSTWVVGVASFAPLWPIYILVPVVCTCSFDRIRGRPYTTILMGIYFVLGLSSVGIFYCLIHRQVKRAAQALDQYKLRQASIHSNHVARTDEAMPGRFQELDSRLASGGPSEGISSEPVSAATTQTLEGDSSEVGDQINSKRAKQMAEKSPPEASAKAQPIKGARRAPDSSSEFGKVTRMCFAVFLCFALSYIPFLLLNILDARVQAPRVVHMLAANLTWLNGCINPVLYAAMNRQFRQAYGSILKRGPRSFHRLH

Turning to `CC(C)(Oc1ccc2c(c1)CCn1c-2cc(OCC2COc3ccccc3O2)nc1=O)C(=O)N1CCOCC1` (centres unmarked) [compound 50, 2-(2,3-dihydro-benzo[1,4]dioxin-2-ylmethoxy)-9-(1,1-dimethyl-2-morpholin-4-yl-2-oxo-ethoxy)-6,7-dihydro-pyrimido[6,1-a]isoquinolin-4-one], the IC50 (commonly the concentration at which inhibition is half-maximal) was 500 to 1000 nM. Turning to `O=c1nc(OCC2CCCO2)cc2n1CCc1cc(OCCOCc3ccccc3)ccc1-2` (centres unmarked) [compound 51, 9-(2-benzyloxy-ethoxy)-2-(tetrahydro-furan-2-ylmethoxy)-6,7-dihydro-pyrimido[6,1-a]isoquinolin-4-one], the IC50 lay in the range of 0.01 to 100 nM. The compound `O=c1nc(OCC2CCCO2)cc2n1CCc1cc(OCC3CCCO3)ccc1-2` (centres unmarked) [compound 52, 2,9-bis-(tetrahydro-furan-2-ylmethoxy)-6,7-dihydro-pyrimido[6,1-a]isoquinolin-4-one] registered an IC50 of 500 to 1000 nM. Compound `O=c1nc(OCC2COc3ccccc3O2)cc2n1CCc1cc(OCC3CCCO3)ccc1-2` (centres unmarked) [compound 54, 2-(2,3-dihydro-benzo[1,4]dioxin-2-ylmethoxy)-9-(tetrahydro-furan-2-ylmethoxy)-6,7-dihydro-pyrimido[6,1-a]isoquinolin-4-one] came in with an IC50 of 0.01 to 100 nM. The result for `Cn1cc(-c2cccc(COc3ccc4c(c3)CCn3c-4cc(OCC4CCCO4)nc3=O)n2)cn1` (centres unmarked) [compound 55, 9-[6-(1-methyl-1H-pyrazol-4-yl)-pyridin-2-ylmethoxy]-2-(tetrahydro-furan-2-ylmethoxy)-6,7-dihydro-pyrimido[6,1-a]isoquinolin-4-one] reads 100 to 500 nM; that for `O=c1nc(OCC2CCCO2)cc2n1CCc1cc(OCc3cccc(-c4ccoc4)n3)ccc1-2` (centres unmarked) [compound 56, 9-(6-furan-3-yl-pyridin-2-ylmethoxy)-2-(tetrahydro-furan-2-ylmethoxy)-6,7-dihydro-pyrimido[6,1-a]isoquinolin-4-one], 0.01 to 100 nM; that for `O=c1nc(OCC2CCCO2)cc2n1CCc1cc(OCc3nnnn3C3CC3)ccc1-2` (centres unmarked) [compound 58, 9-(1-cyclopropyl-1H-tetrazol-5-ylmethoxy)-2-(tetrahydro-furan-2-ylmethoxy)-6,7-dihydro-pyrimido[6,1-a]isoquinolin-4-one], 100 to 500 nM.

In the case of `O=C(COc1ccc2c(c1)CCn1c-2cc(OCC2CCCO2)nc1=O)Nc1ccccc1` (centres unmarked) [compound 63, 2-[4-oxo-2-(tetrahydro-furan-2-ylmethoxy)-6,7-dihydro-4H-pyrimido[6,1-a]isoquinolin-9-yloxy]-N-phenyl-acetamide], the IC50 lay in the range of 0.01 to 100 nM. The result for `CCCn1nnnc1COc1ccc2c(c1)CCn1c-2cc(OCC2CCCO2)nc1=O` (centres unmarked) [compound 64, 9-(1-propyl-1H-tetrazol-5-ylmethoxy)-2-(tetrahydro-furan-2-ylmethoxy)-6,7-dihydro-pyrimido[6,1-a]isoquinolin-4-one] reads 100 to 500 nM; that for `O=c1nc(OCC2CCCO2)cc2n1CCc1cc(OCc3ncco3)ccc1-2` (centres unmarked) [compound 65, 9-(oxazol-2-ylmethoxy)-2-(tetrahydro-furan-2-ylmethoxy)-6,7-dihydro-pyrimido[6,1-a]isoquinolin-4-one], 500 to 1000 nM; that for `CCN(CC)C(=O)COc1ccc2c(c1)CCn1c-2cc(OCC2COc3ccccc3O2)nc1=O` (centres unmarked) [compound 66, 2-[2-(2,3-dihydro-benzo[1,4]dioxin-2-ylmethoxy)-4-oxo-6,7-dihydro-4H-pyrimido[6,1-a]isoquinolin-9-yloxy]-N,N-diethyl-acetamide], 100 to 500 nM. As for `CC(C)N(C)C(=O)COc1ccc2c(c1)CCn1c-2cc(OCC2COc3ccccc3O2)nc1=O` (centres unmarked) [compound 67, 2-[2-(2,3-Dihydro-benzo[1,4]dioxin-2-ylmethoxy)-4-oxo-6,7-dihydro-4H-pyrimido[6,1-a]isoquinolin-9-yloxy]-N-isopropyl-N-methyl-acetamide], the IC50 was in the range of 0.01 to 100 nM. The result for `O=C(COc1ccc2c(c1)CCn1c-2cc(OCC2COc3ccccc3O2)nc1=O)Nc1ccccc1` (centres unmarked) [compound 68, 2-[2-(2,3-dihydro-benzo[1,4]dioxin-2-ylmethoxy)-4-oxo-6,7-dihydro-4H-pyrimido[6,1-a]isoquinolin-9-yloxy]-N-phenyl-acetamide] reads 0.01 to 100 nM; that for `CCCn1nnnc1COc1ccc2c(c1)CCn1c-2cc(OCC2COc3ccccc3O2)nc1=O` (centres unmarked) [compound 69, 2-(2,3-dihydro-benzo[1,4]dioxin-2-ylmethoxy)-9-(1-propyl-1H-tetrazol-5-ylmethoxy)-6,7-dihydro-pyrimido[6,1-a]isoquinolin-4-one], 0.01 to 100 nM. As for `CCCCn1nnnc1COc1ccc2c(c1)CCn1c-2cc(OCC2COc3ccccc3O2)nc1=O` (centres unmarked) [compound 70, 9-(1-butyl-1H-tetrazol-5-ylmethoxy)-2-(2,3-dihydro-benzo[1,4]dioxin-2-ylmethoxy)-6,7-dihydro-pyrimido[6,1-a]isoquinolin-4-one], the figure is 0.01 to 100 nM; as for `O=c1nc(OCC2COc3ccccc3O2)cc2n1CCc1cc(OCCN3CCOCC3)ccc1-2` (centres unmarked) [compound 71, 2-(2,3-dihydro-benzo[1,4]dioxin-2-ylmethoxy)-9-(2-morpholin-4-yl-ethoxy)-6,7-dihydro-pyrimido[6,1-a]isoquinolin-4-one], 0.01 to 100 nM; as for `N#CCOc1ccc2c(c1)CCn1c-2cc(OCC2COc3ccccc3O2)nc1=O` (centres unmarked) [compound 72, [2-(2,3-dihydro-benzo[1,4]dioxin-2-ylmethoxy)-4-oxo-6,7-dihydro-4H-pyrimido[6,1-a]isoquinolin-9-yloxy]-acetonitrile], 0.01 to 100 nM. Take `O=c1nc(OCC2COc3ccccc3O2)cc2n1CCc1cc(OCc3ncco3)ccc1-2` (centres unmarked) [compound 73, 2-(2,3-dihydro-benzo[1,4]dioxin-2-ylmethoxy)-9-(oxazol-2-ylmethoxy)-6,7-dihydro-pyrimido[6,1-a]isoquinolin-4-one]: the IC50 is 100 to 500 nM. In the case of `O=c1nc(OCC2COc3ccccc3O2)cc2n1CCc1cc(OCc3nnnn3C3CC3)ccc1-2` (centres unmarked) [compound 75, 9-(1-cyclopropyl-1H-tetrazol-5-ylmethoxy)-2-(2,3-dihydro-benzo[1,4]dioxin-2-ylmethoxy)-6,7-dihydro-pyrimido[6,1-a]isoquinolin-4-one], the half-inhibitory concentration (IC50) was 0.01 to 100 nM. As for `C=CCOc1ccc2c(c1)CCn1c-2cc(OCC2COc3ncccc3O2)nc1=O` (centres unmarked) [compound 77, 9-allyloxy-2-(2,3-dihydro-[1,4]dioxino[2,3-b]pyridin-2-ylmethoxy)-6,7-dihydro-pyrimido[6,1-a]isoquinolin-4-one], the figure is 100 to 500 nM; as for `O=C(COc1ccc2c(c1)CCn1c-2cc(OCC2COc3ccccc3O2)nc1=O)NCc1ccccc1` (centres unmarked) [compound 78, N-benzyl-2-[2-(2,3-dihydro-benzo[1,4]dioxin-2-ylmethoxy)-4-oxo-6,7-dihydro-4H-pyrimido[6,1-a]isoquinolin-9-yloxy]-acetamide], 0.01 to 100 nM; as for `O=c1nc(OCC2COc3ccccc3O2)cc2n1CCc1cc(OCCN3CCCC3)ccc1-2` (centres unmarked) [compound 79, 2-(2,3-dihydro-benzo[1,4]dioxin-2-ylmethoxy)-9-(2-pyrrolidin-1-yl-ethoxy)-6,7-dihydro-pyrimido[6,1-a]isoquinolin-4-one], 100 to 500 nM. The compound `O=c1nc(OCC2COc3ccccc3O2)cc2n1CCc1cc(OCCN3CCCCC3)ccc1-2` (centres unmarked) [compound 80, 2-(2,3-dihydro-benzo[1,4]dioxin-2-ylmethoxy)-9-(2-piperidin-1-yl-ethoxy)-6,7-dihydro-pyrimido[6,1-a]isoquinolin-4-one] gave an IC50 of 100 to 500 nM.
